Results as given in ChEMBL document CHEMBL5126523, “Recent advances in DDR (DNA damage response) inhibitors for cancer therapy” (Eur J Med Chem, 2022).
Each block holds one compound with its values, some of them ahead of it.

Columns and labels:
[1] = target: T1, ATR/ATRIP (Homo sapiens, UniProt Q13535); assay: Inhibition of human FLAG-tagged ATR/c-Myc-tagged ATRIP expressed in mammalian expression system using p53 as substrate incubated for 2 hrs by fluorescence based assay
[2] = tested on: LoVo; assay: Inhibition of cell growth in human LoVo cells assessed as measuring ATP content incubated for 3 days by Cell Titer Glo assay; type: functional, cell-based; details: 72 h
[3] = Oral bioavailability in BALB/c mouse at 2 mg/kg by LC-MS/MS analysis; type: ADME, organism-based; details: in vivo
[4] = Cmax in BALB/c mouse at 2 mg/kg, po by LC-MS/MS analysis; type: ADME, organism-based; parameters: dose 2 mg/kg, route po; details: in vivo
[5] = tested on: HCT-116; assay: Inhibition of cell proliferation in human HCT-116 cells incubated for 72 hrs by SRB assay; type: functional, cell-based; details: HCT-116, 72 h
[6] = tested on: HCC1937; assay: Inhibition of cell proliferation in human HCC1937 cells incubated for 72 hrs by SRB assay; type: functional, cell-based; details: HCC1937, 72 h
[7] = tested on: MDA-MB-231; assay: Inhibition of cell proliferation in human MDA-MB-231 cells incubated for 72 hrs by SRB assay; type: functional, cell-based; details: MDA-MB-231, 72 h
[8] = target: Poly [ADP-ribose] polymerase tankyrase-2 (Homo sapiens, UniProt Q9H2K2); assay: Inhibition of tankyrase 2 (unknown origin) incubated for 1 hr by chemiluminescence based assay
[9] = target: T2, Poly [ADP-ribose] polymerase 1 (Homo sapiens, UniProt P09874); assay: Inhibition of PARP1 (unknown origin) incubated for 1 hr by chemiluminescence assay
[10] = target: Poly [ADP-ribose] polymerase tankyrase-1 (Homo sapiens, UniProt O95271); assay: Inhibition of tankyrase 1 (unknown origin) incubated for 1 hr by chemiluminescence assay
[11] = target: T2, Poly [ADP-ribose] polymerase 1; assay: Inhibition of N-terminal GST-tagged recombinant human PARP1 (2 to 1014 residues) expressed in Sf9 insect cells incubated for 1 hr by colorimetric assay
[12] = tested on: NCI-H460; assay: Inhibition of cell proliferation in human NCI-H460 cells incubated for 4 days by MTT assay; type: functional, cell-based; details: NCI-H460, 96 h
[13] = target: T1, ATR/ATRIP; assay: Inhibition of full-length human recombinant FLAG-tagged ATR/c-Myc-tagged ATRIP using p53 as substrate incubated for 30 mins in presence of ATP by fluorescence based assay; type: protein-complex assay
[14] = tested on: DU-145; assay: Inhibition of cell proliferation in human DU-145 cells incubated for 4 days by MTT assay; type: functional, cell-based; details: DU-145, 96 h
[15] = tested on: NCI-H1299; assay: Inhibition of cell proliferation in human NCI-H1299 cells incubated for 3 days by MTT assay; type: functional, cell-based; details: NCI-H1299, 72 h
[16] = target: DNA-dependent protein kinase catalytic subunit (Homo sapiens, UniProt P78527); assay: Inhibition of DNA-PK (unknown origin) incubated for 3 hrs by ADP-Glo kinase assay
[17] = tested on: HCT-116; assay: Inhibition of cell proliferation in human HCT-116 incubated for 48 hrs by Cell Titer Glo assay; type: functional, cell-based; details: HCT-116, 48 h
[18] = target: T1, ATR/ATRIP; assay: Inhibition of full-length recombinant human ATR/ATRIP using p53 as substrate incubated for 30 mins in presence of ATP by HTRF assay; type: protein-complex assay
[19] = tested on: NCI-H23; assay: Inhibition of cell proliferation in human NCI-H23 incubated for 48 hrs by Cell Titer Glo assay; type: functional, cell-based; details: NCI-H23, 48 h
[20] = target: Serine/threonine-protein kinase ATR (Homo sapiens, UniProt Q13535); assay: Inhibition of ATR (unknown origin)
[21] = target: Serine-protein kinase ATM (Homo sapiens, UniProt Q13315); assay: Inhibition of ATM (unknown origin)
[22] = species: Homo sapiens; assay: Selectivity index, ratio of IC50 for ATM (unknown origin) to IC50 for PI3K-alpha (unknown origin)
[23] = species: Homo sapiens; assay: Selectivity index, ratio of IC50 for ATM (unknown origin) to IC50 for ATR (unknown origin)
[24] = target: Serine/threonine-protein kinase mTOR (Homo sapiens, UniProt P42345); assay: Inhibition of mTOR (unknown origin)
[25] = species: Homo sapiens; assay: Selectivity index, ratio of IC50 for ATM (unknown origin) to IC50 for mTOR (unknown origin)
[26] = target: T3, Phosphatidylinositol 4,5-bisphosphate 3-kinase catalytic subunit alpha isoform (Homo sapiens, UniProt P42336); assay: Inhibition of PI3K-alpha (unknown origin)
[27] = target: T3, Phosphatidylinositol 4,5-bisphosphate 3-kinase catalytic subunit alpha isoform; assay: Inhibition of PI3K-alpha (unknown origin) incubated for 40 mins in presence of ATP by ELISA

T1 sequence (Q13535 whole entry): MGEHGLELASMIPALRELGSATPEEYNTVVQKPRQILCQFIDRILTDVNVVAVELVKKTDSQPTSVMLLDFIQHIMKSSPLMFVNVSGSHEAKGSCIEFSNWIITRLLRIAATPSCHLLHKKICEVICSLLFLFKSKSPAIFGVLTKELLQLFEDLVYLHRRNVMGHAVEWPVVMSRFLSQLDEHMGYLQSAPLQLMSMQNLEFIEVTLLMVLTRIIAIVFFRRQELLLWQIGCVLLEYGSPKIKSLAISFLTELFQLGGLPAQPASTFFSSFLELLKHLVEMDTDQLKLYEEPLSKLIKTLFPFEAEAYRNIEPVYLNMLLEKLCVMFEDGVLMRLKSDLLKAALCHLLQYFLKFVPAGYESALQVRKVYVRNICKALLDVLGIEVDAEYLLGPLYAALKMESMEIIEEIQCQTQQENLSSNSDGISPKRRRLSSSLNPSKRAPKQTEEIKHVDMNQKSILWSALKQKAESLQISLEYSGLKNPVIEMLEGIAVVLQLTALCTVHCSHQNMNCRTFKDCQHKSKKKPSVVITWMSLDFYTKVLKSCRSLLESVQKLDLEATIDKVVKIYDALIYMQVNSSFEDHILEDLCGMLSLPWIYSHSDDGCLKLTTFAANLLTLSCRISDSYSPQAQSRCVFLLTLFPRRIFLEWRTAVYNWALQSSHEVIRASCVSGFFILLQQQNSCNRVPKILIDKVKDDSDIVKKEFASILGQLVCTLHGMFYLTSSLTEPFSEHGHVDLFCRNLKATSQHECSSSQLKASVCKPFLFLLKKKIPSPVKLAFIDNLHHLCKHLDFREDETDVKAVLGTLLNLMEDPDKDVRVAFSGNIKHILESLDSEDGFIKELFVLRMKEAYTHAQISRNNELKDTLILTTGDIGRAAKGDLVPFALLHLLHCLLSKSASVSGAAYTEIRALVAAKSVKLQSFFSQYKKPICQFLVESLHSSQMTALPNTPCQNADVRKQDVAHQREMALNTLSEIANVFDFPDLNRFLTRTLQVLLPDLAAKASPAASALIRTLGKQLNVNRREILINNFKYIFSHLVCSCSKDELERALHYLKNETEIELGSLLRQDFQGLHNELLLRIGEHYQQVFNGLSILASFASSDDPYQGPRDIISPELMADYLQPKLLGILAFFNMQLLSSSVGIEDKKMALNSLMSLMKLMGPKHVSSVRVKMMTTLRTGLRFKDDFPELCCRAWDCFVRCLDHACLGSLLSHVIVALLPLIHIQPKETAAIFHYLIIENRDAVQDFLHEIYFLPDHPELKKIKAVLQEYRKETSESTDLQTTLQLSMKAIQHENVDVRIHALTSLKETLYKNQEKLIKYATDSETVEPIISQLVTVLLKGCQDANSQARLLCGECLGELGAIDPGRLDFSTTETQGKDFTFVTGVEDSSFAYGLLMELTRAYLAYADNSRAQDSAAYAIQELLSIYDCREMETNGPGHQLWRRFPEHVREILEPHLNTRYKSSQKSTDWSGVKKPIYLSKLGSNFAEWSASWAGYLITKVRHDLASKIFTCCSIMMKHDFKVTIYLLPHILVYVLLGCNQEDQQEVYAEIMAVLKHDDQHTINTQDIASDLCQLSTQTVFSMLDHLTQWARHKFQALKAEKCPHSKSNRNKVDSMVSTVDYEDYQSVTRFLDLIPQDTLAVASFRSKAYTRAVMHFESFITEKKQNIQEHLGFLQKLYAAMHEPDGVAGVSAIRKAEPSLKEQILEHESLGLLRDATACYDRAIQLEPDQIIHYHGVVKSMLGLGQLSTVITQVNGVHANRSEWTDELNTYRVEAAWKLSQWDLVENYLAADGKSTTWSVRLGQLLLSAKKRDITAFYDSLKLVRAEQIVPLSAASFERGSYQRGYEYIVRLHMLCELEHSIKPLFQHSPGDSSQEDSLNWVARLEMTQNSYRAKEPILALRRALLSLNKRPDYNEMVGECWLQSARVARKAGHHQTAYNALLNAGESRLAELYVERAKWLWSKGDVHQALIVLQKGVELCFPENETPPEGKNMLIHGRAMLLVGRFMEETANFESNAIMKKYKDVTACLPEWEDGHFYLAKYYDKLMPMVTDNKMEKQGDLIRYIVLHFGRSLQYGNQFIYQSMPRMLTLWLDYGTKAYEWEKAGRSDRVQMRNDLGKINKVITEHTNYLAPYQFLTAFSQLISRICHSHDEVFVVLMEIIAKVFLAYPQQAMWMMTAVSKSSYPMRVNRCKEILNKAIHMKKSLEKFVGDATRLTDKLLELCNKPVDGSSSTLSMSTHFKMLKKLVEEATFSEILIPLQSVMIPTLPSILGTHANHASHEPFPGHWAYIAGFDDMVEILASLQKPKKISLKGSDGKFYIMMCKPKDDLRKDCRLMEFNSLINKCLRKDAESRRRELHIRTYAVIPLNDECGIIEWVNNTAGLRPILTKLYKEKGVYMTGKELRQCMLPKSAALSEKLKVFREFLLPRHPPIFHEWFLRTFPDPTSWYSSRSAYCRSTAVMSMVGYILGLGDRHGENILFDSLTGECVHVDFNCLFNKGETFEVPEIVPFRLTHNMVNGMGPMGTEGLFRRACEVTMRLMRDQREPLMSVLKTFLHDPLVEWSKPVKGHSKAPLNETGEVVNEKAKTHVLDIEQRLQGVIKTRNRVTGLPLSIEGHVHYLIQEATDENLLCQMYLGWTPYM
T1 sequence (Q8WXE1 whole entry, further chain): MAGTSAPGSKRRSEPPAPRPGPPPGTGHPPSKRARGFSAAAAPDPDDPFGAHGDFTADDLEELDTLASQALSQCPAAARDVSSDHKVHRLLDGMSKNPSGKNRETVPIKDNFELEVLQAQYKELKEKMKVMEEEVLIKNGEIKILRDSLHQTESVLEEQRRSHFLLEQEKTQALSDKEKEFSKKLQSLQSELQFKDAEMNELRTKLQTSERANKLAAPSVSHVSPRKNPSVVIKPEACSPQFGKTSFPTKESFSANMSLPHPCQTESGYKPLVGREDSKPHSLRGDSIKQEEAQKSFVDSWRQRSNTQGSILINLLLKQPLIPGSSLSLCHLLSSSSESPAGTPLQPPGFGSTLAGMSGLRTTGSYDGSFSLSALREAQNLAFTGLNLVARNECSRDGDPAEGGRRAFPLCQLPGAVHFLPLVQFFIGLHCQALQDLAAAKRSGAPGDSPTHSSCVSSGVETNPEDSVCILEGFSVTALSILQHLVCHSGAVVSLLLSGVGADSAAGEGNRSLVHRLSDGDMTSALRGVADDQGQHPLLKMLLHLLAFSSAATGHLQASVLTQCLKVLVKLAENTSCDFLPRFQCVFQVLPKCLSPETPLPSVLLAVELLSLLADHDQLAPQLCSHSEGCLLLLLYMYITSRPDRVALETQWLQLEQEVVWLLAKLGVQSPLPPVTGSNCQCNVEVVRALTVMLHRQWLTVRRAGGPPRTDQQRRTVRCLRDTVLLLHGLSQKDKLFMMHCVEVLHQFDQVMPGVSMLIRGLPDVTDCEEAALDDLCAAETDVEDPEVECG
T2 sequence (P09874 whole entry): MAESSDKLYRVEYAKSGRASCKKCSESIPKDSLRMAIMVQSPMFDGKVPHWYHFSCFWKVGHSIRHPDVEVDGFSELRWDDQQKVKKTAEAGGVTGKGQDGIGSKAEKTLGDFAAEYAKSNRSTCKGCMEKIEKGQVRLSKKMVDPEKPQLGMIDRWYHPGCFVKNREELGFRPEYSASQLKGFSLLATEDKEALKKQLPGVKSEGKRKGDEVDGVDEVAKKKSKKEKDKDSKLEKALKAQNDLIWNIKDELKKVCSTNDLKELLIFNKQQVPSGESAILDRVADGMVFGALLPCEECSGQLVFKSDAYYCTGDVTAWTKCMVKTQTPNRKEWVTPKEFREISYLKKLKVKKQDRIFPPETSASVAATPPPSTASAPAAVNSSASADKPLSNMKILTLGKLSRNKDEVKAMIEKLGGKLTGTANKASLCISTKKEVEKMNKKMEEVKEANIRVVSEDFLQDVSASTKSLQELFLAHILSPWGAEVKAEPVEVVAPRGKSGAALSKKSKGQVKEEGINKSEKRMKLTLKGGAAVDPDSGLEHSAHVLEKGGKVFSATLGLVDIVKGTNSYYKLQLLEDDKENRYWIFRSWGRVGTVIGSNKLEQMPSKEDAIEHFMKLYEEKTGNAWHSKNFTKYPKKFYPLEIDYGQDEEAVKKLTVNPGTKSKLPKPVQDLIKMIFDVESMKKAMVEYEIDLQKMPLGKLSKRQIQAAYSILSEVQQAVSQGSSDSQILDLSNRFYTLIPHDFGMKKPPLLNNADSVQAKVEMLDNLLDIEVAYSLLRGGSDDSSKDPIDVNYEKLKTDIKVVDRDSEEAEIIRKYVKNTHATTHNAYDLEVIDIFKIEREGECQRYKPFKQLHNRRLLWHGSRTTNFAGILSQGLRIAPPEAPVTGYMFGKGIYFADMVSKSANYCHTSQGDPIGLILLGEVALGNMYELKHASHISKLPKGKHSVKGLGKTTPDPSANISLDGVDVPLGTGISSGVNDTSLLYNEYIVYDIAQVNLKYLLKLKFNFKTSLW
Chain of Serine/threonine-protein kinase ATR (Q13535 whole entry): as the sequence (Q13535 whole entry) above

Compound: Cc1cc2ncnn2cc1Nc1ncc2c(n1)C1(CCC3(CC3)CC1)C(=O)N2C
bioavailability [3]: 83%
Cmax [4]: 2170 nM

Compound: Nc1cc(C(F)(F)F)c(-c2nc3c(c(N4CCOCC4)n2)CCN(C(=O)c2cc(Cc4n[nH]c(=O)c5ccccc45)ccc2F)C3)cn1
IC50 [5]: 775 nM
IC50 [6]: 504 nM
IC50 [7]: 155 nM

Compound: COc1ccccc1NC(=O)c1ccc(NC(=O)N2CCN(C(=O)c3cc(Cc4n[nH]c(=O)c5ccccc45)ccc3F)CC2)cc1
IC50 [8]: 6.45 nM
IC50 [9]: 0.59 nM
IC50 [10]: 34.8 nM

Compound: NC(=O)c1cccc2cn(-c3ccc([C@@]4(F)CCCNC4)cc3)nc12
IC50 [11]: < 100 nM

Compound: C=CCn1c(=O)c2cnc(Nc3ccc(N4CCN(C)CC4)cc3)nc2n1-c1cccc(C(C)(C)O)n1 [ADAVOSERTIB]
IC50 [15]: 284 nM

Compound: NC(=O)c1cccc2cn(-c3ccc([C@]4(F)CCCNC4)cc3)nc12
IC50 [11]: < 100 nM

Compound: CC(C)n1c(=O)n(C)c2cnc3ccc(-c4ccc(OCCCN(C)C)nc4)cc3c21
IC50 [20]: > 30000 nM
IC50 [21]: 3.98 nM
Ratio IC50 [22]: > 1000
Ratio IC50 [23]: > 1000
IC50 [24]: > 10000 nM
Ratio IC50 [25]: > 1000
IC50 [26]: > 10000 nM

Compound: NC(=O)c1cccc2cc(C(=O)N3CCN(c4nc(-c5cnc(N)cc5C(F)(F)F)nc(N5CCOCC5)n4)CC3)oc12
IC50 [5]: 193 nM
IC50 [6]: 166 nM
IC50 [7]: 3410 nM

Compound: CN1CCN(c2ccc(Nc3cc4c(cn3)C(=O)N(c3ccccc3Cl)C3=NCCN34)cc2)CC1
IC50 [15]: 154 nM

Now from value to compound:

IC50 [1]: 3 nM
IC50 [2]: 55 nM
Compound: C[C@@H]1COCCN1c1nc(C(C)(C)C#N)c2[nH]nc(-c3ccn[nH]3)c2n1

IC50 [12]: 907 nM
IC50 [13]: 938 nM
IC50 [14]: 1220 nM
Compound: C[C@@H]1COCCN1c1cc(-c2ccnn2C)c2ncc(-c3ccn[nH]3)n2n1

IC50 [5]: 211 nM
IC50 [6]: 81 nM
IC50 [7]: 443 nM
Compound: Nc1ncc(-c2nc3c(c(N4CCOCC4)n2)CCN(C(=O)c2cc(Cc4n[nH]c(=O)c5ccccc45)ccc2F)C3)cn1

bioavailability [3]: 96.4%
Compound: Cc1cc2ncnn2cc1Nc1ncc2c(n1)n(N1CCOCC1)c(=O)n2C

IC50 [16]: 122 nM
Compound: Cc1ncc(-c2cc(NC[C@H](C)c3cccc4c(C5=NCCN5)ccnc34)ncn2)cn1

IC50 [16]: 165 nM
Compound: COc1ccc(Nc2cc(-c3ncnc4cc(N5CCOCC5)ccc34)c(F)cc2Cl)nn1

IC50 [17]: < 10000 nM
IC50 [18]: < 500 nM
IC50 [19]: < 10000 nM
Compound: CNc1nc2ccc(F)cc2n1-c1nc(-c2ccnn2C)cc(N2CCOC[C@H]2C)n1

IC50 [1]: 4 nM
IC50 [2]: 699 nM
Compound: C[C@@H]1COC[C@H]2COc3c(nc(-c4ccnc5[nH]ccc45)nc3C3(S(C)(=N)=O)CC3)N21 (some centres undefined)

IC50 [5]: 1050 nM
IC50 [27]: 94 nM
IC50 [6]: 426 nM
IC50 [7]: 1190 nM
IC50 [9]: 0.78 nM
Compound: Nc1ncc(-c2nc(N3CCOCC3)nc(N3CCN(C(=O)c4cc(Cc5n[nH]c(=O)c6ccccc56)ccc4F)CC3)n2)cn1

IC50 [12]: 322 nM
IC50 [13]: 379 nM
IC50 [14]: 914 nM
Compound: Cc1ccc(-c2cc(N3CCOC[C@H]3C)nn3c(-c4ccn[nH]4)cnc23)cn1

IC50 [17]: < 10000 nM
IC50 [18]: < 500 nM
IC50 [19]: < 10000 nM
Compound: C[C@@H]1COCCN1c1cc(-c2ccnn2C)nc(-n2c(NCCO)nc3ccc(F)cc32)n1
